From patent US20250249014A1, “A COMBINATION FOR TREATING A RETINAL DISEASE” (HADASIT MEDICAL RESEARCH SERVICES AND DEVELOPMENT LTD., priority 2022, published 2025)
Where a name gives a salt, the structure may show the parent alone. Read-outs that look alike come from different tables or passages of the source.

How the values were obtained:
[1] = tested on: HUVECs; experiment: Cell proliferation assay (WST-1) on HUVECs, with synergy analysis; assay type: cell-based, Human; conditions: for IC50 (inhibitory concentration of 50% cell growth compared to control) / IC50 / % of Inhibition ± SD: HUVECs proliferation; for dose-proliferation inhibition relationship: increasing SMI concentration; for IC50: Homo sapiens, HUVEC; for % of Inhibition ± SD: maximal attainable concentration of each SMI (28.421 μM, 17.85 μM, 20.99 μM); for effect of addition to the Azeliragon and EHop-016 combination on proliferation inhibition: CCR2-RA-[R] 22.74 μM
Method: Cell proliferation assay—The principle of cell proliferation assay is illustrated in FIG. 1. Briefly, HUVECS were seeded and maintained in EGM™-2 (Lonza Bioscience Solutions) medium for 24 hours. The cells were then treated with various dosages of SMI for designated time periods. Each experiment included a DMSO-treated control group. Tetrazolium salt was added according to the manufacturer's instructions and formation of formazan dye was quantified by measuring the absorbance at 440 nm using spectrophotometer. The formation of formazan dye is directly proportional to number of living cells.
Analysis of combined synergistic effect-Analysis of combined SMIs effect was determined from the results of the cell proliferation assay after 72 hours. SMIs synergy was determined by three synergy models. • 1. The Zero Interaction Potency (ZIP) model is a reference model for evaluating the effect of combination of two drugs by comparing the change in the potency of the dose-response curves between individual drugs and their combinations. A zip score higher than 10 is indicative of a synergistic combination, a zip score of between −10 and 10 is indicative of an additive combination and a zip score lower than −10 is indicative of an antagonistic combination. • 2. […] Values below 1 will represent synergism and above 1 antagonism.

[2] = tested on: HUVECs; experiment: Endothelial cell migration assay (scratch test); assay type: cell-based, Human; conditions: EHop-016 0.8 μM at 11 hours, CCR2-RA-[R] 5 μM at 13 hours
Method: Endothelial cell migration assay (scratch test)—5×10^4 cells/200 μl of HUVECs were cultured in 96 wells Incucyte® ImageLock 96-well microplates plates to near confluence in EGM™-2 medium for 24 hours. Afterwards, a homogeneous, 700-800-micron wide scratch wounds were created using Incucyte® WoundMaker. Different SMIs concentrations vs. DMSO (solvent) were added. Serial images for 26 hours of the migrating cells were obtained hourly using a live cell imaging system (Incucyte®).

[3] = tested on: choroidal neovascularization (CNV); experiment: Laser-Induced CNV model; assay type: in vivo, C57BL/6J mice; conditions: dosage calibration assays; EHop-016 30 μM, Aflibercept 41.27 μM
Method: Laser-Induced CNV Model—CNV was induced in C57BL/6J mice using argon green ophthalmic laser ([…], 50 μm, 0.1 sec) applied under fundoscopy to rupture Bruch's membrane. […] The injections were performed at the superotemporal sclera, where a perforating sclerotomy was made with 27-gauge (G) needle at approximately 1-2 mm from the limbus. Then, 1-2 μl of SMIs (solved in 5% Cremophor: 5% ethanol: 90% saline) vs. Sham were injected through the sclerotomy, under fundoscopy using 34 g microsyringe (Hamilton, Benfleet, UK).
Quantification of CNV—Eyes were enucleated, treated according to standard protocols. […] The flat mounts were then washed six times for 20 min each in PBS and mounted on a slide using mounting medium. The area of CNV surrounding each laser injury was measured using ImageJ software.

[4] = tested on: choroid explants; experiment: Choroid sprouting assay, ex-vivo; assay type: cell-based, C57BL/6J mice; conditions: 7 days; 0.55 μM Azeliragon, EHop-016 alone, 0.70 μM in combination; compared to untreated and DMSO
Method: Plates were then incubated for 10 minutes in 37° C., in a 5% CO2 cell culture incubator without medium to solidify the Matrigel™. […] Fresh medium and SMIs were replaced every two days and grown for 7 days (x3 time medium replaced).

[5] = tested on: Hypoxia-inducible factor 1-alpha (HIF-1α); experiment: Western blot of HIF-1α expression in HUVEC cells; assay type: cell-based, Human; conditions: 72 hours, combination Azeliragon 0.6 μM and EHop-016 1.3 μM
Method: Western blot—5×10^4 HUVEC cells were seeded in 10 cm dish in EGM™-2 medium for 24 hours. The cells were then treated with various dosages and combinations of SMI for 72 hours in addition to a control group treated with DMSO. Cells were lysed in WCE (whole-cell extraction) buffer [25 mM Hepes, pH 7.7, 0.3 M NaCl, 1.5 mM MgCl2, 0.2 mM EDTA, 0.1% Triton X-100, 0.5 mM DTT (dithiothreitol), 20 mM 2-glycerophosphate, 0.1 mM Na3VO4, 100 μg/ml PMSF and protease inhibitor cocktail (Sigma-Aldrich, 1:100 dilution)]. The proteins were then separated by SDS/PAGE (10% gel), followed by transfer on to a nitrocellulose membrane. Blots were blocked in 5% (w/v) non-fat dried skimmed milk powder in PBS and washed in PBS.

[6] = tested on: VEGF; conditions: diabetic macular edema patients; cited from earlier work
Sequence of VEGF (P15692 207-311 limits assumed): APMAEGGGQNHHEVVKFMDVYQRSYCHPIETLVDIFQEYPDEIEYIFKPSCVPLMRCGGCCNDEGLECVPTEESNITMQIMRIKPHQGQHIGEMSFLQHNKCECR

[7] = HUVECs, single 72-hour treatment
[8] = single 72-hour treatment, read-out: IC50 (inhibitory concentration of 50% cell growth compared to control)

For `Cc1ccc(NC(=O)c2cccc(OCc3c(C)noc3C)c2)cc1S(N)(=O)=O` (racemic) [Z62954982, 3-((3,5-Dimethylisoxazol-4-yl)methoxy)-N-(4-methyl-3-sulfamoyl-phenyl)benzamide], the “IC50 (inhibitory concentration of 50% cell growth compared to control)” value ([1]; single 72-hour treatment) was “No effect” and the “inhibitory effect with longer incubation time” value ([1]; HUVECs, treatment time extended to 120 hours compared to 72-hour incubation) was “did not improve the inhibitory effect”.

In the case of `COc1ccc(/C=C/c2cc(O)cc(O)c2)cc1` [4′-Methoxyresveratrol, 5-[(E)-2-(4-Methoxyphenyl)ethen-1-yl]benzene-1,3-diol], the dose-proliferation inhibition relationship [1, 7] is reported as “linear inhibition of proliferation” and the IC50 [1, 8] is reported as 64 µM.

With `O=C(CNC(=O)c1cccc(C(F)(F)F)c1)N[C@@H]1CCN(Cc2ccc(Cl)cc2)C1` [CCR2 antagonist 4 hydrochloride, N-[2-[[(3R)-1-[(4-chlorophenyl)methyl]-3-pyrrolidinyl]amino]-2-oxoethyl]-3-(trifluoromethyl)benzamidehydrochloride] the “% of Inhibition ± SD” value [1] was 13.8 ± 8.07%.

In the case of `CC(=O)C1=C(O)C(=O)N(c2ccc(Cl)cc2F)[C@@H]1C1CCCCC1` [CCR2-RA-[R], (R)-4-Acetyl-1-(4-chloro-2-fluorophenyl)-5-cyclohexyl-3-hydroxy-1,5-dihydro-2H-pyrrol-2-one], the “inhibition of HUVECs proliferation (summary in words)” value [1] is reported as “did not show significant inhibition”, the “% of Inhibition ± SD” value [1] is reported as 33.4 ± 4.30% and the “effect of addition to the Azeliragon and EHop-016 combination on proliferation inhibition” value ([1]; HUVECs, 24-hour treatment) is reported as “significantly augmented the proliferation inhibition effect”. The “effect of addition to the Azeliragon and EHop-016 combination on proliferation inhibition” value ([1]; HUVECs, 48- and 72-hour treatment) was “not” and the “inhibition of HUVECs migration” value [2] was “strongly inhibited cell migration”.

In the case of `CCn1c2ccccc2c2cc(Nc3ccnc(NCCCN4CCOCC4)n3)ccc21` [EHop-016, N4-(9-Ethyl-9H-carbazol-3-yl)-N2-[3-(4-morpholinyl)propyl]-2,4-pyrimidinediamine], the “dependence of proliferation inhibition on the initial number of cells” value ([1]; HUVECs at 3×10^3 and 1×10^3 cells/well) is reported as “independent from the initial number of cells”, the “decrease of IC50 by daily dosing in comparison with IC50 of SD regimen” value ([1]; HUVECs, 72 hours) is reported as “more than a half” and the dose-proliferation inhibition relationship [1, 7] is reported as “linear inhibition of proliferation”. For the same molecule, the IC50 ([1]; daily dosing, 72 hours, read-out: IC50 following daily dosing regimen) was 1.24 µM, the IC50 [1, 8] was 2.31 µM and the CNV area [3] was “comparable to the dramatic effect received from Aflibercept injection”. For the same molecule, the “inhibition of HUVECs migration” value [2] was “strongest migration inhibitor”, the “area of the sprouting vessels” value [4] was “inhibited the area of the sprouting vessels” and the HIF-1α expression [5] was “inhibited expression”.

For `O=C(c1ccc(Cl)cc1)N(Cc1ccccc1)C1CCCCC1` [FPS-ZM1, 4-Chloro-N-cyclohexyl-N-(phenylmethyl)benzamide], the dose-proliferation inhibition relationship [1, 7] was “linear inhibition of proliferation” and the IC50 [1, 8] was 30 µM.

With `CCN(CC)CCCC(C)Nc1nc(C)cc(Nc2ccc3nc(C)cc(N)c3c2)n1.Cl.Cl.Cl` (stereo not shown) [NSC 23766 trihydrochloride, N6-[2-(4-Diethylamino-1-methyl-butylamino)-6-methyl-pyrimidin-4-yl]-2-methyl-quinoline-4,6-diamine trihydrochloride] the “IC50 (inhibitory concentration of 50% cell growth compared to control)” value ([1]; single 72-hour treatment) was “No effect”.

With `O=C(NCC(=O)N1CC[C@H](NC2CCC(O)(c3ccc(-c4ncccn4)cn3)CC2)C1)c1cccc(C(F)(F)F)c1` (stereo partly drawn) [PF-4136309, N-[2-[(3S)-3-[[4-hydroxy-4-(5-pyrimidin-2-ylpyridin-2-yl)cyclohexyl]amino]pyrrolidin-1-yl]-2-oxoethyl]-3-(trifluoromethyl)benzamide] the “% of Inhibition ± SD” value [1] was 25.7 ± 7.68%.

For “Aflibercept: Aflibercept (Eylea®), comparator injection in Laser-induced CNV model”, the CNV area [3] was “dramatic effect”.

B1: Ranibizumab: a monoclonal antibody that inhibits VEGF (antibody, chains of the INN, looked up, V domains shown)
VH: EVQLVESGGGLVQPGGSLRLSCAASGYDFTHYGMNWVRQAPGKGLEWVGWINTYTGEPTYAADFKRRFTFSLDTSKSTAYLQMNSLRAEDTAVYYCAKYPYYYGTSHWYFDVWGQGTLVTVSS
VL: DIQLTQSPSSLSASVGDRVTITCSASQDISNYLNWYQQKPGKAPKVLIYFTSSLHSGVPSRFSGSGSGTDFTLTISSLQPEDFATYYCQQYSTVPWTFGQGTKVEIK
In the case of B1, the “clinical outcome (vision, macular edema)” value [6] is given as “rapidly and sustainably improved vision”.
